Reference: PMC11120720, “Linking Variability in Phytochemical Composition with Safety Profile of Thymus carnosus Boiss. Extracts: Effect of Major Compounds and Evaluation of Markers of Oxidative Stress and Cell Death” (International Journal of Molecular Sciences, 2024)
Where two headings read alike, the source gives them in different places.

Columns and labels:
[1] = Alamar Blue cell viability assay, Caco-2; format: cell-based, human; conditions: human, Caco-2; 48 h; concentration not given; read-out: cell viability, Caco-2 (% of control)
Description: (§1) The safety profile of T. carnosus AD and HE extracts was evaluated in Caco-2 and HepG2 cells using an Alamar Blue® (Invitrogen; Alfagene, Lisboa, Portugal) assay. An initial screening was performed for all extracts at concentrations ranging between 100 and 1000 µg/mL. Due to the higher toxicity of the HE extracts, which was previously described for various extracts of Thymus species using the same extraction methods (e.g., T. mastichina and Thymus zygis), a different set of concentrations was used for the HE extracts (between 100 and 300 µg/mL for Caco-2 cells and 50 and 150 µg/mL for HepG2 cells). Figure 1 presents the data related to the cell viability assays in Caco-2 (panels A–E) and HepG2 cells (panels F–J) exposed to T. carnosus extracts, as indicated.
(§2) The safety profile of T. carnosus extracts was assessed in Caco-2 and HepG2 cells. Caco-2 (human colon adenocarcinoma cell line) were obtained from CLS (Cell Lines Service, Eppelheim, Germany), and HepG2 (human hepatocellular carcinoma cell line) were obtained from ATCC (American Type Culture Collection, Manassas, VA, USA).
(§3) Cell culture maintenance, handling, subculturing, and seeding were performed as described by Silva et al., 2020 [5], and cell viability was assessed using an Alamar Blue® assay, as described by Andreani et al., 2014 [64]. Concentrations ranged between 100 and 1000 µg/mL for AD extracts in both cell lines and 100 to 300 µg/mL or 50 to 150 µg/mL for HE extracts in Caco-2 and HepG2 cells, respectively. The effect of individual compounds on cell viability was assessed for concentrations ranging from 50 to 300 µM. All test solutions were prepared by diluting the samples in FBS-free culture media from the stock solutions described in Section 3.2, just prior to being used.
(§4) The results are presented as mean ± SD of at least three independent assays. The calculation of IC50 values was performed as described by Silva et al., 2020 [5]. Data analysis, graphical design, and statistical analysis were performed using Microsoft Office Excel (Professional Plus 2019; Microsoft Corporation, Washington, DC, USA) and GraphPad Prism (Version 8; GraphPad Software Inc., San Diego, CA, USA). Flow cytometry data analysis was performed using BD Accuri™ C6 Software, version 1.0.264.21 (Becton Dickinson, San Diego, CA, USA).

Caco-2 cells [2] = assay: Alamar Blue cell viability assay, Caco-2; format: cell-based, human; conditions: for IC50: Homo sapiens
Description: as §1, §2, §3, §4

[3] = Alamar Blue cell viability assay, HepG2; format: cell-based, human; conditions: human, HepG2 cells, concentration not given
Description: as §1, §2, §3, §4

HepG2 cells [4] = assay: Alamar Blue cell viability assay, HepG2; format: cell-based, human; conditions: for IC50: Homo sapiens
Description: as §1, §2, §3, §4

Caco-2 cells [5] = assay: Intracellular ROS (DCFDA, flow cytometry), Caco-2; format: cell-based; conditions: compound 50 µM, 24 h
Description: (§5) The cells were then equally divided for each assay.
(§6) Intracellular ROS level assessment was performed as described by Silva et al., 2022 [65], using dichlorodihydrofluorescein diacetate (DCFDA). Cells obtained in the previous step were centrifuged, the supernatant discarded, and 200 µL of DCFDA (10 µM in FBS-free DMEM) was added. Cells were incubated for 45 min (37 °C, in the dark), washed to remove excess probe, and resuspended in PBS for data acquisition.

HepG2 cells [6] = assay: Intracellular ROS (DCFDA, flow cytometry), HepG2; format: cell-based, human; conditions: compound 50 µM, 24 h
Description: as §5, §6

HepG2 cells [7] = assay: Mitochondrial membrane potential (JC-1, flow cytometry), HepG2; format: cell-based, human; conditions: compound 50 µM, 24 h
Description: Flow cytometry was used to analyze the effect of T. carnosus extracts on intracellular ROS, modulation of mitochondrial membrane potential (MMP), cell cycle arrest, and apoptotic/necrotic cell death induction.
Both one- and two-color assays were performed using a BD Accuri™ C6 cytometer (Becton Dickinson, Franklin Lakes, NJ, USA), and 10,000 gated events were collected from each sample [1]. For flow cytometry assays, cells were handled as described previously but seeded at a density 5 × 10^4 cells/mL (750 μL/well) in 12-well plates. Caco-2 and HepG2 cells were incubated for 24 h with the extracts (100 µg/mL) or individual phytochemicals (50 µM) diluted in FBS-free culture media h. After incubation, test solutions were removed; the cells were washed with PBS and detached from the plates using trypsin-EDTA. Once transferred to centrifuge tubes, the cells were centrifuged (bench micro-centrifuge; 3000 rpm; 3 min), the supernatant was discarded, and a new wash cycle was performed. The cells were then equally divided for each assay. A negative control was used in all assays consisting of nonexposed cells incubated only with culture media.
Mitochondrial membrane potential (MMP) was evaluated using 5,5″,6,6″-tetrachloro-1,1″,3,3″-tetraethylbenzimidazolylcarbocyanineiodide (JC-1). Cells were processed as described for DCFDA but incubated with 200 µL of JC-1 (2 µM, in FBS-free DMEM) for 20 min (37 °C, in the dark).

Caco-2 cells [8] = assay: Annexin V-FITC/PI apoptosis/necrosis, Caco-2; format: cell-based; conditions: compound 50 µM, 24 h
Description: as §5
(§7) For the assessment of apoptotic/necrotic cell death, an Annexin V-FITC (Thermo Fisher Scientific, Waltham, MA, USA) and propidium iodide (PI; Merck, Darmstadt, Germany) double-staining assay was used to evaluate the apoptotic/necrotic cell death induced by T. carnosus extracts and by individual phytochemicals, as described previously. Briefly, after detachment and washing, the supernatant was discarded, and 200 µL of Annexin V-FITC (1:200 dilution in Annexin-binding buffer [10 mM HEPES sodium salt, 150 mM NaCl, 5 mM KCl, 5 mM MgCl2, and 1.8 mM CaCl2; pH = 7.4]) was added. Cells were incubated for 20 min (room temperature, in the dark). After incubation, 5 µL of propidium iodide (PI; 50 µg/mL) was added, the cells were incubated for 5 min on ice (in the dark), and the data were acquired.

HepG2 cells [9] = assay: Annexin V-FITC/PI apoptosis/necrosis, HepG2; format: cell-based, human; conditions: compound 50 µM, 24 h
Description: as §5, §7

[10] = test system: human lung cancer (A549) cells; conditions: cited from earlier work
[11] = test system: normal and tumoral human nasopharyngeal cells; parameters: method as in PMID 33277860; conditions: 24 h; cited from earlier work
Caco-2 cells [12] = assay: Cell cycle arrest (PI, flow cytometry), Caco-2; format: cell-based; conditions: compound 50 µM, 24 h
Description: as §5
(§8) Cell cycle arrest assessment was performed as described in [1]. Cells were processed as described above until cell detachment and centrifuged, after which the second washing step was performed with ice-cold PBS (0 °C). After centrifugation, the supernatant was discarded, and cells were fixed with 500 µL of ethanol:PBS solution (70:30, % v/v, previously cooled at −20 °C) for at least 4 h at −20 °C. After fixation, two washing cycles were performed: the first with ice-cold PBS (0 °C) and the second with room-temperature PBS, followed by the addition of 200 µL of a PBS solution containing PI (50 µg/mL), RNAse A (50 µg/mL), and Triton X-100 (0.1%). Cells were incubated for 30 min at 37 °C, and then cells were washed once with PBS to remove the staining solution. After resuspension in PBS, the data were acquired.

HepG2 cells [13] = assay: Cell cycle arrest (PI, flow cytometry), HepG2; format: cell-based, human; conditions: compound 50 µM, 24 h
Description: as §5, §8

[14] = test system: nasopharyngeal carcinoma cells NPC-039; parameters: method as in PMID 34165247; conditions: cited from earlier work
[15] = test system: nasopharyngeal carcinoma cells NPC-BM; parameters: method as in PMID 34165247; conditions: cited from earlier work
Caco-2 cells [16] = conditions: cited from earlier work
HepG2 cells [17] = conditions: cited from earlier work
[18] = test system: hepatocarcinoma cells (HuH7); parameters: method as in PMID 20415421; conditions: 20-80 µM; cited from earlier work
[19] = parameters: method as in PMID 31344882, PMID 26042707; conditions: cited from earlier work

## O=C1C[C@@H](c2ccc(O)c(O)c2)Oc2cc(O)cc(O)c21 [Eriodictyol, eriodictyol]
[1]
  viability at 48 h: ~19%
Caco-2 cells [2]; 48 h, concentration not given
  reduction of Caco-2 cell viability: ~ 81%
Caco-2 cells [2]; Caco-2, 24 h, read-out: IC50 (µM) - Caco-2 cells: 24 h
  IC50: 245 ± 13.7 µM
Caco-2 cells [2]; Caco-2, 48 h, read-out: IC50 (µM) - Caco-2 cells: 48 h
  IC50: 82.5 µM
[3]; 24 h
  viability at 24 h: 56.9%
[3]; 48 h
  viability at 48 h: 43.2%
HepG2 cells [4]; HepG2, 24 h, read-out: IC50 (µM) - HepG2 cells: 24 h
  IC50: > 300 µM
HepG2 cells [4]; HepG2, 48 h, read-out: IC50 (µM) - HepG2 cells: 48 h
  IC50: 231 ± 23.2 µM
Caco-2 cells [5]
  change in intracellular ROS, Caco-2: neither RA nor eriodictyol induced ROS increases
HepG2 cells [6]
  change in intracellular ROS, HepG2: significant (p < 0.05) increase in intracellular HepG2 ROS levels
HepG2 cells [7]
  MMP modulation, HepG2: hyperpolarization of the mitochondrial membrane
Caco-2 cells [8]
  cell death induction, Caco-2: induced apoptosis and necrosis
HepG2 cells [9]
  cell death induction, HepG2: induced apoptosis and necrosis
[10]
  cell cycle effect, A549: cell cycle arrest in the G2/M phase
  concentrations reducing the MMP in A549 cells: ≥ 25 µM
[11]
  concentrations inducing cytotoxicity, nasopharyngeal cells: ≥ 5 µM

## O=c1cc(-c2ccc(O)c(O)c2)oc2cc(O[C@@H]3O[C@H](CO)[C@@H](O)[C@H](O)[C@H]3O)cc(O)c12 [Luteolin-7-O-glucoside, luteolin-7-O-glucoside]
Caco-2 cells [2]; Caco-2
  concentrations reducing Caco-2 cell viability (p < 0.05): ≥ 75 µM
HepG2 cells [4]; 300 µM, 48 h
  reduction in HepG2 cell viability: ~ 30%
HepG2 cells [4]; 48 h exposure
  concentrations giving significant effect on HepG2 cell viability: ≥ 100 µM
HepG2 cells [6]
  change in intracellular ROS, HepG2: significant (p < 0.05) increase in intracellular HepG2 ROS levels
Caco-2 cells [12]
  cell cycle effect, Caco-2: cell cycle arrest in G0/G1
HepG2 cells [13]
  cell cycle effect, HepG2: induced cell cycle arrest in both cell lines but in different phases
Caco-2 cells [8]
  cell death induction, Caco-2: did not induce cell death
HepG2 cells [9]
  cell death induction, HepG2: did not induce cell death
[14]; 20, 40 and 80 µM
  MMP modulation, NPC-039: MMP depolarization
[14]
  cell cycle effect, NPC-039: cell cycle arrest in the S and G2/M phases
[15]; 20, 40 and 80 µM
  MMP modulation, NPC-BM: MMP depolarization
[15]
  cell cycle effect, NPC-BM: cell cycle arrest in the S and G2/M phases
Caco-2 cells [16]; read-out: concentration reducing Caco-2 cell viability to 50% of control, 48 h
  IC50: ~55 µM
HepG2 cells [17]; read-out: concentration reducing HepG2 cells' viability to ~50%
  IC50: 44.6 µM

## CC1(C)CC[C@]2(C(=O)O)CC[C@]3(C)C(=CC[C@@H]4[C@@]5(C)CC[C@H](O)C(C)(C)[C@@H]5CC[C@]43C)[C@@H]2C1 [Oleanolic acid, oleanolic acid]
Caco-2 cells [2]; Caco-2, 24 h exposure, read-out: IC50 (µM) - Caco-2 cells: 24 h
  IC50: 78.5 ± 3.57 µM
Caco-2 cells [2]; Caco-2, 48 h exposure, read-out: IC50 (µM) - Caco-2 cells: 48 h
  IC50: 45.9 ± 2.47 µM
HepG2 cells [4]; HepG2, 24 h exposure, read-out: IC50 (µM) - HepG2 cells: 24 h
  IC50: 150 ± 7.66 µM
Caco-2 cells [5]
  change in intracellular ROS, Caco-2: increase in ROS
HepG2 cells [6]
  change in intracellular ROS, HepG2: significant (p < 0.05) increase in intracellular HepG2 ROS levels
Caco-2 cells [12]
  cell cycle effect, Caco-2: cell cycle arrest in G0/G1
Caco-2 cells [8]
  percentage of cells in late apoptosis, Caco-2: ~ 29%
  percentage of cells in necrosis, Caco-2: ~ 50%
HepG2 cells [9]
  cell death induction, HepG2: slight reduction in the percentage of healthy cells
[18]
  MMP modulation, HuH7: reduce MMP
[19]
  lipophilicity: high lipophilicity
  water solubility: poor water solubility
Caco-2 cells [16]; 24 h
  concentrations reducing Caco-2 cell viability: ≥ 5 µM
HepG2 cells [17]; 48 h
  concentrations reducing HepG2 cell viability: ≥ 2 µM
HepG2 cells [17]; read-out: IC50, HepG2 cells, 72 h
  IC50: > 100 µM
